Laboratory results published in US20250084039A1, “4-SUBSTITUTED AMINOISOQUINOLINE DERIVATIVES” (Purdue Research Foundation, priority 2016, published 2025).
Like-named read-outs stand apart in the source and are kept apart here.

How the values were obtained:
PKCa = PKCa (Homo sapiens (Human), UniProt P17252); assay: Reaction Biology HotSpot kinase assay; assay type: biochemical; settings: 500 nM compound; read-out: Percentage kinase inhibition PKCa
Summary of the method: (§1)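 Phosphotransfer from [γ-33P]ATP was quantified after filter binding on P81 paper. Conditions: 20 mM HEPES pH 7.5, 10 mM MgCl2, 0.1 mM Na3VO4, 2 mM DTT, 0.02 mg/mL BSA; ATP 100 μM final; 2 h at room temperature. Compound was dosed at 500 nM.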

FLT1/VEGFR1 = FLT1/VEGFR1 (Homo sapiens (Human), UniProt P17948); assay: Reaction Biology HotSpot kinase assay; assay type: biochemical; settings: 500 nM compound; read-out: Percentage kinase inhibition FLT1/VEGFR1
Summary of the method: as §1

FGFR1 = FGFR1 (Homo sapiens (Human), UniProt P11362); assay: Reaction Biology HotSpot kinase assay; assay type: biochemical; settings: 500 nM compound; read-out: Percentage kinase inhibition FGFR1
Summary of the method: (§2)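 HotSpot 33P transfer format. Enzyme, substrate and 500 nM test compound sit together for 20 min, then labelled and unlabelled ATP totalling 100 μM are added and phosphorylation proceeds for 2 h at room temperature. Products are captured on P81 cellulose paper, and activity is expressed relative to DMSO.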

BRAF = BRAF (Homo sapiens (Human), UniProt P15056); assay: Reaction Biology HotSpot kinase assay; assay type: biochemical; settings: 500 nM compound; read-out: Percentage kinase inhibition BRAF
Summary of the method: as §1

AXL = AXL (Homo sapiens (Human), UniProt P30530); assay: Reaction Biology HotSpot kinase assay; assay type: biochemical; settings: 500 nM compound; read-out: Percentage kinase inhibition AXL
Summary of the method: as §1

FLT4/VEGFR3 = FLT4/VEGFR3 (Homo sapiens (Human), UniProt P35916); assay: Reaction Biology HotSpot kinase assay; assay type: biochemical; settings: 500 nM compound; read-out: Percentage kinase inhibition FLT4/VEGFR3
Summary of the method: as §1

YES/YES1 = YES/YES1 (Homo sapiens (Human), UniProt P07947); assay: Reaction Biology HotSpot kinase assay; assay type: biochemical; settings: 500 nM compound; read-out: Percentage kinase inhibition YES/YES1
Summary of the method: as §1

BTK = BTK (Homo sapiens (Human), UniProt Q06187); assay: Reaction Biology HotSpot kinase assay; assay type: biochemical; settings: 500 nM compound; read-out: Percentage kinase inhibition BTK
BTK, sequence (Q06187 whole entry): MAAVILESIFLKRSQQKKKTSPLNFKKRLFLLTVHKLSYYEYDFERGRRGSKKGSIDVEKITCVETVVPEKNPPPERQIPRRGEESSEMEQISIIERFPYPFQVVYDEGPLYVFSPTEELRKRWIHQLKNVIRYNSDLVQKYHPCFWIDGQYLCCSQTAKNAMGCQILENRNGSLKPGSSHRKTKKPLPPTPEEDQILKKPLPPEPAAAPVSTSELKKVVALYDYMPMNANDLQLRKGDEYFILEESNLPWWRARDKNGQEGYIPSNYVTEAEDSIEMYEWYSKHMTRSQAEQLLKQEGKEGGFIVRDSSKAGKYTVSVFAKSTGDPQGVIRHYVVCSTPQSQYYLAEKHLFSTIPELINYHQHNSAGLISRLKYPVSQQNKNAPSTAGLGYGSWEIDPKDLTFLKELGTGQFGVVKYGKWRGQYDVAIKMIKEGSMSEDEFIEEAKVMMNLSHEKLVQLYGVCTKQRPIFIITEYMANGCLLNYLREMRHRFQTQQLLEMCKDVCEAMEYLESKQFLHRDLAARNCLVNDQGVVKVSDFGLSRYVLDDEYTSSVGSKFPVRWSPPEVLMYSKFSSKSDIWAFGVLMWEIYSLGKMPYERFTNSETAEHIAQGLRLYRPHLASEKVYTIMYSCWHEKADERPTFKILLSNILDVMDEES
Summary of the method: as §1

KDR/VEGFR2 = KDR/VEGFR2 (Homo sapiens (Human), UniProt P35968); assay: Reaction Biology HotSpot kinase assay; assay type: biochemical; settings: 500 nM compound; read-out: Percentage kinase inhibition KDR/VEGFR2
Summary of the method: as §1

EPHB2 = EPHB2 (Homo sapiens (Human), UniProt P29323); assay: Reaction Biology HotSpot kinase assay; assay type: biochemical; settings: 500 nM compound; read-out: Percentage kinase inhibition EPHB2
Summary of the method: as §1

PDGFRa = PDGFRa (Homo sapiens (Human), UniProt P16234); assay: Reaction Biology HotSpot kinase assay; assay type: biochemical; settings: 500 nM compound; read-out: Percentage kinase inhibition PDGFRa
Summary of the method: as §1

ROS/ROS1 = ROS/ROS1 (Homo sapiens (Human), UniProt P08922); assay: Reaction Biology HotSpot kinase assay; assay type: biochemical; settings: 500 nM compound; read-out: Percentage kinase inhibition ROS/ROS1
Summary of the method: as §1

c-MER = c-MER (Homo sapiens (Human), UniProt Q12866); assay: Reaction Biology HotSpot kinase assay; assay type: biochemical; settings: 500 nM compound; read-out: Percentage kinase inhibition c-MER
c-MER, sequence (Q12866 21-999): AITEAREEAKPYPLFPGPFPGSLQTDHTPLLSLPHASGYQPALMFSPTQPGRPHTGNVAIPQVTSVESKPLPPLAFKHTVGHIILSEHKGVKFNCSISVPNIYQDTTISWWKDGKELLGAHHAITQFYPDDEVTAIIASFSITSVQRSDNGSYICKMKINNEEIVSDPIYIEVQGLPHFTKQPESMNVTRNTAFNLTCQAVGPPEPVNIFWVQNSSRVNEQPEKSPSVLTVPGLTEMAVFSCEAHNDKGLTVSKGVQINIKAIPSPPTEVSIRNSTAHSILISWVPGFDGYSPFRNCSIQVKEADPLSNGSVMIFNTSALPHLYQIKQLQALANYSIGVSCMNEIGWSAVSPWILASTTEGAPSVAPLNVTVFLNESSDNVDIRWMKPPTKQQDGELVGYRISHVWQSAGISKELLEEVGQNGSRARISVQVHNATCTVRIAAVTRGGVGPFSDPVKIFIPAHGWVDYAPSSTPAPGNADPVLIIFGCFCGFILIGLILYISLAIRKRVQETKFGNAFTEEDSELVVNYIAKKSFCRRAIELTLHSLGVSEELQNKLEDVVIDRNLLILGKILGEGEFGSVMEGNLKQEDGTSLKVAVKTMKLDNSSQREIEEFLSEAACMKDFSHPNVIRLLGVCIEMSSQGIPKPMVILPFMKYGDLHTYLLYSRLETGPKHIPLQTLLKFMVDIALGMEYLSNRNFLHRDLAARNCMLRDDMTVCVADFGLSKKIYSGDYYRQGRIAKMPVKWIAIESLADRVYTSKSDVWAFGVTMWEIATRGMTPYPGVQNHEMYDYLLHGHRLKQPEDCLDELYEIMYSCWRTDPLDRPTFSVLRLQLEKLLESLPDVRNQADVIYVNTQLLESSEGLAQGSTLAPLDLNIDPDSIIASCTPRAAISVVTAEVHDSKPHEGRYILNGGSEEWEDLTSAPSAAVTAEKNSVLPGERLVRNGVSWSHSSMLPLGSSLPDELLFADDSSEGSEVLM
Summary of the method: as §1

AKT1 = AKT1 (Homo sapiens (Human), UniProt P31749); assay: Reaction Biology HotSpot kinase assay; assay type: biochemical; settings: 500 nM compound; read-out: Percentage kinase inhibition AKT1
Summary of the method: as §2

FLT3 = FLT3 (Homo sapiens (Human), UniProt P36888); assay: Reaction Biology HotSpot kinase assay; assay type: biochemical; settings: for inhibition at 0.5 µM: read-out: % inhibition of FLT3 activity
Summary of the method: as §2

EPHA5 = EPHA5 (Homo sapiens (Human), UniProt P54756); assay: Reaction Biology HotSpot kinase assay; assay type: biochemical; settings: 500 nM compound; read-out: Percentage kinase inhibition EPHA5
EPHA5, sequence (P54756 25-1037): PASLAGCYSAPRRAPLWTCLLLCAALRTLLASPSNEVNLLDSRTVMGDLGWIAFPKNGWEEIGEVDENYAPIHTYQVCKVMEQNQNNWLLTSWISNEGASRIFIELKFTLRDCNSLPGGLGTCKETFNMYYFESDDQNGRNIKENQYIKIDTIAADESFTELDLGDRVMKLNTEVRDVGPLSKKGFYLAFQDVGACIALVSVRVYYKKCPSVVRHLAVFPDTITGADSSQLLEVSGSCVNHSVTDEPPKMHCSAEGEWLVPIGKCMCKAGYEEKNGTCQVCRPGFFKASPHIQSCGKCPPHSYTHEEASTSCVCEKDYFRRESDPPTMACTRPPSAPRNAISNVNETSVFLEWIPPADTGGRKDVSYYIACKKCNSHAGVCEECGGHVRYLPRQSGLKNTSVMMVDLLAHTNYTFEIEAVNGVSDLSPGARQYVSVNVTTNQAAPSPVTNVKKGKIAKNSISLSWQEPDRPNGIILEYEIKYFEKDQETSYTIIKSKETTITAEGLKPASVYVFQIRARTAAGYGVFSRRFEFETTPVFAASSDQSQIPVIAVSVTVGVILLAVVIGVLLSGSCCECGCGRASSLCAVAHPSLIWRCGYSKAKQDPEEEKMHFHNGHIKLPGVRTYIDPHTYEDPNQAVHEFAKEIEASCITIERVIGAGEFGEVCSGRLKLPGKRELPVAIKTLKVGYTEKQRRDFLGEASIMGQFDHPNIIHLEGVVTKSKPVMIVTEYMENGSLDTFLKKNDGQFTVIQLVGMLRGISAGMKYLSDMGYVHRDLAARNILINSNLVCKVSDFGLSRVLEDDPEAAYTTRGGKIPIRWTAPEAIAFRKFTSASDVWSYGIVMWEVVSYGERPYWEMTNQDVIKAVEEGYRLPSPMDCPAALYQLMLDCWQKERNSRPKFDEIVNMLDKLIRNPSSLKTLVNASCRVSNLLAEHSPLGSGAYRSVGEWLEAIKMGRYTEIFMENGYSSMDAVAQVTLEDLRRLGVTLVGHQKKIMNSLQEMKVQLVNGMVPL
Summary of the method: as §1

ERBB2/HER2 = ERBB2/HER2 (Homo sapiens (Human), UniProt P04626); assay: Reaction Biology HotSpot kinase assay; assay type: biochemical; settings: 500 nM compound; read-out: Percentage kinase inhibition ERBB2/HER2
ERBB2/HER2, sequence (P04626 23-1255): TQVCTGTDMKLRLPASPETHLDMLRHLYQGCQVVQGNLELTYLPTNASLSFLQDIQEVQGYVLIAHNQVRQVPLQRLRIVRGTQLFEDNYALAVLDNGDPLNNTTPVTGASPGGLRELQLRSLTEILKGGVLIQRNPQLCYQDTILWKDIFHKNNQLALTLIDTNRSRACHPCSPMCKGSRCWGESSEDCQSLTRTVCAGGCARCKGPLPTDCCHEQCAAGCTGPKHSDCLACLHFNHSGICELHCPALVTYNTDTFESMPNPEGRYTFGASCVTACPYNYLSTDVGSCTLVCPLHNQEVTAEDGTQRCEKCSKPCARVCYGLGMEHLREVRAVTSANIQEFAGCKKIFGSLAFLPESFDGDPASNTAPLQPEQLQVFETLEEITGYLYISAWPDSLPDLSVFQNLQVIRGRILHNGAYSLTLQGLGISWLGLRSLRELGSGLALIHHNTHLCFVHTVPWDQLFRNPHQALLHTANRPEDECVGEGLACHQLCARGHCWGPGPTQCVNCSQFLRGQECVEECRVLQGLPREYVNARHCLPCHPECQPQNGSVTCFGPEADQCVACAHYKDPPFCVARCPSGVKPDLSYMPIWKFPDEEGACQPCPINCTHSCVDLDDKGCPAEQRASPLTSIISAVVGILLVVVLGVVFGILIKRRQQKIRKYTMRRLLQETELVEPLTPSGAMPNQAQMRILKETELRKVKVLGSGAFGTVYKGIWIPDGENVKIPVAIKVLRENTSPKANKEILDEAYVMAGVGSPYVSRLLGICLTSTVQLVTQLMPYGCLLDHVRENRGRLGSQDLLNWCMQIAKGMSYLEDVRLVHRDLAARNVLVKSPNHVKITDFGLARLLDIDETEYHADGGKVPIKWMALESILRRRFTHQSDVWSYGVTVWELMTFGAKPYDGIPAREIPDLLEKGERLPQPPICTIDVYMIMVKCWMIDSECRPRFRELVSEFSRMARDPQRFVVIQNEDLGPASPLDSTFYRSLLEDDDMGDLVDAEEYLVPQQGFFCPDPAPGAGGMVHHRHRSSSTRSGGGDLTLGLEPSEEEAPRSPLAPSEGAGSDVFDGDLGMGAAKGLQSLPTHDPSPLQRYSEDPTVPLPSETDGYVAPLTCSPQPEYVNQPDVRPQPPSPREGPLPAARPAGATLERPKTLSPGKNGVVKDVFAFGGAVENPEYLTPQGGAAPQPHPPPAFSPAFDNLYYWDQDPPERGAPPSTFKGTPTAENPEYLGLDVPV
Summary of the method: as §1

TIE2/TEK = TIE2/TEK (Homo sapiens (Human), UniProt Q02763); assay: Reaction Biology HotSpot kinase assay; assay type: biochemical; settings: 500 nM compound; read-out: Percentage kinase inhibition TIE2/TEK
Summary of the method: as §1

ALK = ALK (Homo sapiens (Human), UniProt Q9UM73); assay: Reaction Biology HotSpot kinase assay; assay type: biochemical; settings: 500 nM compound; read-out: Percentage kinase inhibition ALK
Summary of the method: as §1

EGFR = EGFR (Homo sapiens (Human), UniProt P00533); assay: Reaction Biology HotSpot kinase assay; assay type: biochemical; settings: 500 nM compound; read-out: Percentage kinase inhibition EGFR
Summary of the method: as §1

TRKB = TRKB (Homo sapiens (Human), UniProt Q16620); assay: Reaction Biology HotSpot kinase assay; assay type: biochemical; settings: 500 nM compound; read-out: Percentage kinase inhibition TRKB
Summary of the method: as §1

FGR = FGR (Homo sapiens (Human), UniProt P09769); assay: Reaction Biology HotSpot kinase assay; assay type: biochemical; settings: 500 nM compound; read-out: Percentage kinase inhibition FGR
FGR, sequence (P09769 whole entry): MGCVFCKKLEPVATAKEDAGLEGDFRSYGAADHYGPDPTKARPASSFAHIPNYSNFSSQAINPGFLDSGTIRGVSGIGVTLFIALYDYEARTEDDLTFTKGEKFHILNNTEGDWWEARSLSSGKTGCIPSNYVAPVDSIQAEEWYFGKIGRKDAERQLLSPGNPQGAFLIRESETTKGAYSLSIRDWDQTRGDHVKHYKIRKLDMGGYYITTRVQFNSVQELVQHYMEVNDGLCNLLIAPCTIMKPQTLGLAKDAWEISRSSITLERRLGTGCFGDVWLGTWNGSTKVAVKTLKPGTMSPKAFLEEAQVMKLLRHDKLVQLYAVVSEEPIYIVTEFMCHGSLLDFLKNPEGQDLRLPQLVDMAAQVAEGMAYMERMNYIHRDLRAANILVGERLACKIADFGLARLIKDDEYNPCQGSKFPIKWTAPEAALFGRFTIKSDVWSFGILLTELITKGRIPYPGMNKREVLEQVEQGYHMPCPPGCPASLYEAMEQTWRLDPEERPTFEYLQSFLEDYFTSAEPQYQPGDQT
Summary of the method: as §1

c-Met = c-Met (Homo sapiens (Human), UniProt P08581); assay: Reaction Biology HotSpot kinase assay; assay type: biochemical; settings: 500 nM compound; read-out: Percentage kinase inhibition c-Met
Summary of the method: as §1

MOLM14 = assay: IC50 determination (proliferation assay, CellTiter-Blue); assay type: cell-based
Protocol: Cell lines were seeded into 96-well plates the afternoon prior to treatment. Approximately 18 hours later, compounds were diluted in dimethyl sulfoxide (DMSO) and added to cells. Plates were incubated for 72 hours and cells viability determined with CellTiter-Blue Cell Viability Assay (Promega, Madison, WI). Plates were read after 4 additional hours of incubation at 37° C. using plate reader (Bio-Tek, Winooski. VT). Data was analyzed and graphed using GraphPad Prism Software (Graphpad. La Jolla, CA). […]

Row | Compound | inhibition at 0.5 µM (PKCa) | inhibition at 0.5 µM (FLT1/VEGFR1) | inhibition at 0.5 µM (FGFR1) | inhibition at 0.5 µM (BRAF) | inhibition at 0.5 µM (AXL) | inhibition at 0.5 µM (FLT4/VEGFR3) | inhibition at 0.5 µM (YES/YES1) | inhibition at 0.5 µM (BTK) | inhibition at 0.5 µM (KDR/VEGFR2) | inhibition at 0.5 µM (EPHB2) | inhibition at 0.5 µM (PDGFRa) | inhibition at 0.5 µM (ROS/ROS1) | inhibition at 0.5 µM (c-MER) | inhibition at 0.5 µM (AKT1) | inhibition at 0.5 µM (EPHA5) | inhibition at 0.5 µM (ERBB2/HER2) | inhibition at 0.5 µM (TIE2/TEK) | inhibition at 0.5 µM (ALK) | inhibition at 0.5 µM (EGFR) | inhibition at 0.5 µM (TRKB) | other results
1 | Cc1ccc(C(=O)Nc2ccc(CN3CCN(C)CC3)c(C(F)(F)F)c2)cc1C#Cc1cnc(N)c2ccccc12 [HSN334, 3-((1-aminoisoquinolin-4-yl)ethynyl)-4-methyl-N-(4-((4-methylpiperazin-1-yl)methyl)-3-(trifluoromethyl)phenyl)benzamide] | 0% | 79% | 96% | 96% | 5% | 79% | 100% | 46% | 94% | 98% | 86% | 0% | 0% | 0% | 97% | 31% | 99% | 0% | 61% | 41% | % inhibition of FLT3 activity (FLT3): 100%; inhibition at 0.5 µM (FLT3): 99%; inhibition at 0.5 µM (FGR): 100%; inhibition at 0.5 µM (c-Met): 14%; proliferation inhibition in words, MOLM-14 (MOLM14): potent proliferation inhibitors; IC50 (MOLM14; Homo sapiens, MOLM-14): 1.61 ± 0.02 nM
2 | COc1cc2nc(N)nc(C#Cc3cc(C(=O)Nc4ccc(CN5CCN(C)CC5)c(C(F)(F)F)c4)ccc3C)c2cc1OC [HSN325] | 5% | 42% | 58% | 38% | 3% | 42% | 41% | 4% | 90% | 3% | 53% | 0% | 0% | 0% | 30% | 4% | 47% | 2% | 0% | 0% | % inhibition of FLT3 activity (FLT3; 500 nM compound): 34%; inhibition at 0.5 µM (FLT3; 500 nM compound): 33%; inhibition at 0.5 µM (FGR): 39%; inhibition at 0.5 µM (c-Met): 15%; IC50 (MOLM14; Homo sapiens, MOLM-14): 456 ± 15 nM
3 | Cc1ccc(C(=O)Nc2ccc(CN3CCN(C)CC3)c(C(F)(F)F)c2)cc1C#Cc1c(N)ncc2ccc(Cl)cc12 [HSN286] | 5% | 86% | 98% | 97% | 3% | 98% | 100% | 41% | 95% | 96% | 93% | 10% | 0% | 0% | 96% | 25% | 97% | 0% | 44% | 79% | inhibition at 0.5 µM (FLT3): 97%; inhibition at 0.5 µM (FGR): 100%; inhibition at 0.5 µM (c-Met): 20%; IC50 (MOLM14): 0.72 ± 0.02 nM; IC50 (MOLM14; Homo sapiens, MOLM-14): 0.7 nM
